Assay results taken from US20230301966A1, “METHOD OF ENHANCING 5-HYDROXYTRYPTOPHAN (5-HTP) EXPOSURE” (Evecxia Therapeutics, Inc., priority 2021, published 2023).
Read-outs that look alike come from different tables or passages of the source.

Key:
[1] = cited from earlier work
[2] = Single-dose pharmacokinetic evaluation of gastroretentive tablets in human healthy volunteers (Example 5); format: in vivo; settings: plasma, oral, 250 mg, single administration, high-fat meal
Description: The “fast” 5-HTP (250 mg) / low-dose carbidopa (0.625 mg, 2.5 mg, 5 mg, or 15 mg) gastroretentive tablets were administered orally to subjects from a cohort totaling 16 healthy subjects in a 5-period open label pharmacokinetics study. The subjects’ mean age was ~50 years (33 to 60 years). All were Caucasian, 11 males, 5 females. Average weight was ~80 kg and all body mass index (BMI) < 32.0 kg/m^2. The subjects were admitted to a clinic during the study. The swelling layer of the tablets was radiolabelled with ≤1 MBq ^111In to allow for parallel scintigraphic location of the tablets in the gastrointestinal tract. The tablets were administered in the morning, one tablet per administration, after ingestion of≥80% of the breakfast. Tablets were administered with 210 mL water followed by a radiolabelled drink (radiocontrast) containing NMT 4 MBq technetium-99m-diethylene triaminepentaacetic acid (99mTc-DTPA) in 30 mL of water. […]
In the first 4 periods, the tablets were administered after a standardized FDA high-fat, high-calorie meal (FDA, 2022), in order of increasing doses of carbidopa. […] The 5-HTP and carbidopa in the plasma were analyzed by liquid-chromatography-mass spectrometry. […]
Carbidopa plasma was below lower limit of quantification (1 ng/ml) at all timepoints at the 0.625 mg carbidopa dose strength, and for most time points at the 2.5 mg carbidopa dose strength. […]

[3] = PK simulation to steady-state at twice-daily dosing by non-parametric superposition (NPS); set-up: species or system human; settings: plasma 5-HTP, steady-state at twice-daily administration
From the text: Given this T½ for 5-HTP and the known metabolism of 5-HTP by AAAD, non-parametric superpositioning (NPS) pharmacokinetic modeling can be applied to predict steady-state 5-HTP plasma exposure. NPS is an established method known in the field to generally predict steady-state plasma levels of an active pharmaceutical compound. NPS assumes that each dose of an active pharmaceutical compound is metabolized independently of other doses; that the rate and extent of absorption and average systemic clearance are the same for each dosing interval; and that linear pharmacokinetics apply. Based on NPS, the steady-state 5-HTP plasma exposure would be expected to be about 0.25-fold higher (to total about 1.25-fold) than that observed after single-administration. Further, given the T½, steady-state plasma exposure would, according to standard assumptions, be expected to be reached within 5-6 half-lives, i.e., about 1 day.
Plasma pharmacokinetics parameters were estimated using standard Phoenix WinNonlin methods. Data are presented as geometric mean ± SEM. The 5-HTP plasma profiles after single tablet administration of “fast” 5-HTP (250 mg) / low-dose carbidopa (15 mg) tablets following either an FDA high-fat high-calorie meal versus after an FDA moderate-fat, moderate-calorie meal are shown in FIG. 6B. […]

[4] = cited from earlier work; remark: listed apart in the source
[5] = Excipient compatibility of 5-HTP and carbidopa blends, storage at 40° C; format: physicochemical; settings: for 5-HTP Impurities at T= 1 month (%) Total / Carbidopa Impurities at T= 1 month (%) Total / 5-HTP Impurities at T= 1 month (%) LSI / Carbidopa Impurities at T= 1 month (%) LSI: 1 month at 40° C; for 5-HTP Impurities at T=7 (%) Total / Carbidopa Impurities at T=7 (%) Total / 5-HTP Impurities at T=7 (%) LSI / Carbidopa Impurities at T=7 (%) LSI: 7 days at 40° C; for 5-HTP Impurities at T= 1 month (%) LSI / Carbidopa Impurities at T= 1 month (%) LSI / 5-HTP Impurities at T=7 (%) LSI / Carbidopa Impurities at T=7 (%) LSI / 5-HTP Impurities at T=0 (%) LSI / Carbidopa Impurities at T=0 (%) LSI: largest single impurity
Description: Excipient compatibility studies were performed to examine the stability of 5-HTP and carbidopa mixed together, either the two APIs alone or in the presence of one or two excipients. The stability (assay and level of impurities) was tested using small aliquots of 5-HTP (300 mg) and carbidopa (25 mg) blended together, with or without together excipients. The API/excipient ratios were based on the approximate composition of gastroretentive tablets of 5-HTP and carbidopa in Table 1. There were no significant increases in the levels of impurities for any of the API/excipient(s) combinations at T=0, 7 days and 1 month of storage at 40° C. The maximum percentage increase (largest single impurity) for carbidopa was 0.44%, 0.55%, and 0.86% at T=0, 7 days and 1 month, respectively. The maximum percentage increase for 5-HTP was 0.27%, 0.48%, and 0.49% at T=0, 7 days and 1 month, respectively.

Row | SMILES | 5-HTP Impurities at T= 1 month (%) Total [5] | Carbidopa Impurities at T= 1 month (%) Total [5] | 5-HTP Impurities at T=7 (%) Total [5] | Carbidopa Impurities at T=7 (%) Total [5] | 5-HTP Impurities at T=0 (%) Total [5] | Carbidopa Impurities at T=0 (%) Total [5] | 5-HTP Impurities at T= 1 month (%) LSI [5] | Carbidopa Impurities at T= 1 month (%) LSI [5] | 5-HTP Impurities at T=7 (%) LSI [5] | Carbidopa Impurities at T=7 (%) LSI [5] | 5-HTP Impurities at T=0 (%) LSI [5] | Carbidopa Impurities at T=0 (%) LSI [5] | aqueous solubility [4] | further results
1 | N[C@@H](Cc1ccc(O)c(O)c1)C(=O)O [L-DOPA] | – | – | – | – | – | – | – | – | – | – | – | – | – | time for L-DOPA plasma exposure to reach steady-state ([1]; L-DOPA/carbidopa therapy, 600-1200 mg/day and 120-150 mg/day): less than 12 h
2 | N[C@@H](Cc1c[nH]c2ccc(O)cc12)C(=O)O [Sample 5-HTP, 5-hydroxytryptophan] | – | – | – | – | – | – | – | – | – | – | – | – | ~ 15 mg/ml | half-life ([2]; read-out: Elimination half-life (Average) 5-HTP (converted)): 2.9 h; Tmax ([2]; read-out: TMax (Average) 5-HTP): 1 h; Relative steady-state average plasma exposure (average ng/ml gastroretentive /average ng/ml immediate release) [3]: 1; 5-HTP plasma exposure ([1]; 200 mg/day carbidopa with 1,150-2,900 mg/day 5-HTP, separate IR dosage forms, after 8-54 months (Magnussen and Van Woert, 1982b)): 2,000-10,000 ng/ml; Tmax ([1]; native 5-HTP immediate release): ~ 1 h; half-life T½ ([1]; native 5-HTP immediate release): ~ 2 h; oral bioavailability ([1]; native 5-HTP immediate release, one study (WO2019245925)): ~ 20%; bioavailability in the colon ([1]; one study (WO2019245925)): ~ 4%; bioavailability in the upper intestine ([1]; one study (WO2019245925)): ~ 20%
3 | C[C@@](Cc1ccc(O)c(O)c1)(NN)C(=O)O [carbidopa] | – | – | – | – | – | – | – | – | – | – | – | – | ~ 1.5 mg/ml | T½ ([1]; known value): 1 to 2 h

Further lines, with some results ahead:

Row | 5-HTP Impurities at T= 1 month (%) Total [5] | Carbidopa Impurities at T= 1 month (%) Total [5] | 5-HTP Impurities at T=7 (%) Total [5] | Carbidopa Impurities at T=7 (%) Total [5] | 5-HTP Impurities at T=0 (%) Total [5] | Carbidopa Impurities at T=0 (%) Total [5] | 5-HTP Impurities at T= 1 month (%) LSI [5] | Carbidopa Impurities at T= 1 month (%) LSI [5] | 5-HTP Impurities at T=7 (%) LSI [5] | Carbidopa Impurities at T=7 (%) LSI [5] | 5-HTP Impurities at T=0 (%) LSI [5] | Carbidopa Impurities at T=0 (%) LSI [5] | SMILES | aqueous solubility [4] | further results
4 | 0.26% | 0.00% | 0.23% | 0.00% | 0.23% | 0.00% | 0.12% | 0.00% | 0.12% | 0.00% | 0.13% | 0.00% | N[C@@H](Cc1c[nH]c2ccc(O)cc12)C(=O)O [Sample 17, 5-HTP (control)] | – | –
5 | 0.00% | 0.79% | 0.00% | 0.45% | 0.00% | 0.41% | 0.00% | 0.27% | 0.00% | 0.28% | 0.00% | 0.27% | C[C@@](Cc1ccc(O)c(O)c1)(NN)C(=O)O [Sample 18, Carbidopa (control)] | – | –
